± gives the expanded uncertainty stated by the source.
Details: Liquid; for mass density: 100 kPa, Buoyancy - hydrostatic balance with magnetic suspension - one sinker

CCCCCCCn1cc[n+](C)c1.F[B-](F)(F)F [1-heptyl-3-methylimidazolium tetrafluoroborate] gave a surface tension liquid-gas (263.76 K, Ring tensiometer) of 37.38 ± 0.63 mN/m, a mass density (263.87 K) of 1147.27 ± 0.59 kg/m3 and a mass density (268.63 K) of 1143.58 ± 0.59 kg/m3. It also gave a surface tension liquid-gas (268.69 K, Ring tensiometer) of 37.21 ± 0.63 mN/m, a mass density (273.63 K) of 1139.44 ± 0.59 kg/m3 and a surface tension liquid-gas (273.9 K, Ring tensiometer) of 36.87 ± 0.62 mN/m. For the same compound, the surface tension liquid-gas (278.51 K, Ring tensiometer) was 36.66 ± 0.62 mN/m, the mass density (278.6 K) was 1136.36 ± 0.59 kg/m3 and the surface tension liquid-gas (283.18 K, Willlhelmy plate method) was 36.23 ± 0.11 mN/m. It also gave a mass density (283.19 K) of 1133.24 ± 0.59 kg/m3, a surface tension liquid-gas (283.21 K, Ring tensiometer) of 36.42 ± 0.62 mN/m and a surface tension liquid-gas (288.47 K, Willlhelmy plate method) of 35.98 ± 0.11 mN/m. It also gave a surface tension liquid-gas (288.49 K, Ring tensiometer) of 36.15 ± 0.62 mN/m, a mass density (288.51 K) of 1129.35 ± 0.59 kg/m3 and a surface tension liquid-gas (293.29 K, Ring tensiometer) of 36.03 ± 0.62 mN/m. The surface tension liquid-gas (293.29 K, Willlhelmy plate method) was 35.74 ± 0.11 mN/m, the mass density (293.3 K) was 1126.02 ± 0.59 kg/m3 and the mass density (298.21 K) was 1122.73 ± 0.59 kg/m3. It also gave a surface tension liquid-gas (298.21 K, Ring tensiometer) of 35.76 ± 0.62 mN/m, a surface tension liquid-gas (298.21 K, Willlhelmy plate method) of 35.54 ± 0.11 mN/m and a surface tension liquid-gas (303.1 K, Ring tensiometer) of 35.54 ± 0.61 mN/m. For the same compound, the mass density (303.11 K) was 1119.42 ± 0.59 kg/m3, the surface tension liquid-gas (303.11 K, Willlhelmy plate method) was 35.31 ± 0.11 mN/m and the surface tension liquid-gas (308.19 K, Willlhelmy plate method) was 35.1 ± 0.11 mN/m. For the same compound, the surface tension liquid-gas (308.2 K, Ring tensiometer) was 35.18 ± 0.61 mN/m, the mass density (308.22 K) was 1115.86 ± 0.59 kg/m3 and the surface tension liquid-gas (313.21 K, Ring tensiometer) was 34.9 ± 0.61 mN/m. For the same compound, the mass density (313.23 K) was 1112.13 ± 0.59 kg/m3, the surface tension liquid-gas (313.24 K, Willlhelmy plate method) was 34.82 ± 0.11 mN/m and the mass density (317.78 K) was 1108.94 ± 0.59 kg/m3. For the same compound, the surface tension liquid-gas (317.78 K, Ring tensiometer) was 34.74 ± 0.61 mN/m, the surface tension liquid-gas (317.81 K, Willlhelmy plate method) was 34.6 ± 0.11 mN/m and the mass density (322.97 K) was 1105.52 ± 0.59 kg/m3. For the same compound, the surface tension liquid-gas (323 K, Ring tensiometer) was 34.45 ± 0.6 mN/m, the surface tension liquid-gas (323.06 K, Willlhelmy plate method) was 34.33 ± 0.1 mN/m and the surface tension liquid-gas (327.79 K, Ring tensiometer) was 34.24 ± 0.6 mN/m. The surface tension liquid-gas (327.8 K, Willlhelmy plate method) was 34.13 ± 0.1 mN/m, the mass density (327.81 K) was 1102.47 ± 0.59 kg/m3 and the surface tension liquid-gas (333.01 K, Ring tensiometer) was 33.87 ± 0.6 mN/m. The mass density (333.04 K) was 1098.48 ± 0.59 kg/m3, the surface tension liquid-gas (333.09 K, Willlhelmy plate method) was 33.82 ± 0.1 mN/m and the mass density (338.46 K) was 1095.77 ± 0.59 kg/m3. For the same compound, the surface tension liquid-gas (338.61 K, Willlhelmy plate method) was 33.62 ± 0.1 mN/m, the surface tension liquid-gas (338.64 K, Ring tensiometer) was 33.54 ± 0.6 mN/m and the surface tension liquid-gas (342.42 K, Ring tensiometer) was 33.44 ± 0.6 mN/m. The surface tension liquid-gas (342.5 K, Willlhelmy plate method) was 33.39 ± 0.1 mN/m, the mass density (342.6 K) was 1092.48 ± 0.59 kg/m3 and the surface tension liquid-gas (348.76 K, Willlhelmy plate method) was 33.17 ± 0.1 mN/m. For the same compound, the mass density (348.77 K) was 1089.11 ± 0.59 kg/m3, the surface tension liquid-gas (348.79 K, Ring tensiometer) was 33.17 ± 0.59 mN/m and the surface tension liquid-gas (353.93 K, Ring tensiometer) was 32.8 ± 0.59 mN/m. For the same compound, the mass density (353.97 K) was 1085.93 ± 0.59 kg/m3, the surface tension liquid-gas (353.99 K, Willlhelmy plate method) was 32.86 ± 0.1 mN/m and the surface tension liquid-gas (357.12 K, Willlhelmy plate method) was 32.66 ± 0.1 mN/m. For the same compound, the surface tension liquid-gas (357.16 K, Ring tensiometer) was 32.47 ± 0.59 mN/m, the mass density (357.24 K) was 1082.94 ± 0.59 kg/m3 and the mass density (364.28 K) was 1078.73 ± 0.59 kg/m3. For the same compound, the surface tension liquid-gas (364.34 K, Ring tensiometer) was 31.97 ± 0.59 mN/m and the surface tension liquid-gas (364.4 K, Willlhelmy plate method) was 32.34 ± 0.1 mN/m.
For CCCCCCCCCn1cc[n+](C)c1.F[B-](F)(F)F [1-nonyl-3-methylimidazolium tetrafluoroborate], the mass density (269.37 K) was 1108.1 ± 0.39 kg/m3, the surface tension liquid-gas (269.49 K, Ring tensiometer) was 33.05 ± 0.53 mN/m and the surface tension liquid-gas (274.62 K, Ring tensiometer) was 32.75 ± 0.53 mN/m. For the same compound, the mass density (274.7 K) was 1104.14 ± 0.39 kg/m3, the surface tension liquid-gas (278.42 K, Ring tensiometer) was 32.6 ± 0.53 mN/m and the mass density (278.49 K) was 1101.14 ± 0.39 kg/m3. For the same compound, the surface tension liquid-gas (283.61 K, Willhelmy plate method) was 32.09 ± 0.07 mN/m, the mass density (283.7 K) was 1097.76 ± 0.39 kg/m3 and the surface tension liquid-gas (283.73 K, Ring tensiometer) was 32.33 ± 0.53 mN/m. The surface tension liquid-gas (288.37 K, Willhelmy plate method) was 31.88 ± 0.07 mN/m, the mass density (288.38 K) was 1094.04 ± 0.39 kg/m3 and the surface tension liquid-gas (288.41 K, Ring tensiometer) was 32.14 ± 0.52 mN/m. The mass density (293.34 K) was 1090.55 ± 0.39 kg/m3, the surface tension liquid-gas (293.36 K, Ring tensiometer) was 31.82 ± 0.52 mN/m and the surface tension liquid-gas (293.36 K, Willhelmy plate method) was 31.67 ± 0.07 mN/m. It also gave a surface tension liquid-gas (298.28 K, Ring tensiometer) of 31.59 ± 0.52 mN/m, a mass density (298.3 K) of 1087.19 ± 0.39 kg/m3 and a surface tension liquid-gas (298.31 K, Willhelmy plate method) of 31.45 ± 0.07 mN/m. For the same compound, the surface tension liquid-gas (303.11 K, Ring tensiometer) was 31.38 ± 0.52 mN/m, the surface tension liquid-gas (303.12 K, Willhelmy plate method) was 31.29 ± 0.07 mN/m and the mass density (303.16 K) was 1084.03 ± 0.39 kg/m3. The surface tension liquid-gas (308.07 K, Ring tensiometer) was 31.2 ± 0.52 mN/m, the mass density (308.11 K) was 1080.68 ± 0.39 kg/m3 and the surface tension liquid-gas (308.11 K, Willhelmy plate method) was 31.1 ± 0.07 mN/m. It also gave a surface tension liquid-gas (313.04 K, Ring tensiometer) of 30.9 ± 0.51 mN/m, a surface tension liquid-gas (313.06 K, Willhelmy plate method) of 30.81 ± 0.07 mN/m and a mass density (313.07 K) of 1077.08 ± 0.39 kg/m3. It also gave a surface tension liquid-gas (317.79 K, Ring tensiometer) of 30.65 ± 0.51 mN/m, a mass density (317.8 K) of 1073.8 ± 0.39 kg/m3 and a surface tension liquid-gas (317.83 K, Willhelmy plate method) of 30.66 ± 0.07 mN/m. It also gave a surface tension liquid-gas (322.85 K, Ring tensiometer) of 30.43 ± 0.51 mN/m, a mass density (322.89 K) of 1070.47 ± 0.38 kg/m3 and a surface tension liquid-gas (322.9 K, Willhelmy plate method) of 30.39 ± 0.07 mN/m. It also gave a surface tension liquid-gas (328.72 K, Ring tensiometer) of 30.17 ± 0.51 mN/m, a surface tension liquid-gas (328.74 K, Willhelmy plate method) of 30.12 ± 0.07 mN/m and a mass density (328.78 K) of 1067.01 ± 0.38 kg/m3. The mass density (333.51 K) was 1063.61 ± 0.38 kg/m3, the surface tension liquid-gas (333.58 K, Ring tensiometer) was 29.92 ± 0.51 mN/m and the surface tension liquid-gas (333.58 K, Willhelmy plate method) was 29.92 ± 0.07 mN/m. For the same compound, the surface tension liquid-gas (338.63 K, Ring tensiometer) was 29.71 ± 0.5 mN/m, the mass density (338.65 K) was 1060.05 ± 0.38 kg/m3 and the surface tension liquid-gas (338.67 K, Willhelmy plate method) was 29.67 ± 0.07 mN/m. For the same compound, the mass density (342.35 K) was 1057.5 ± 0.38 kg/m3, the surface tension liquid-gas (342.37 K, Ring tensiometer) was 29.49 ± 0.5 mN/m and the surface tension liquid-gas (342.48 K, Willhelmy plate method) was 29.52 ± 0.07 mN/m. For the same compound, the surface tension liquid-gas (348.12 K, Willhelmy plate method) was 29.3 ± 0.07 mN/m, the surface tension liquid-gas (348.21 K, Ring tensiometer) was 29.22 ± 0.5 mN/m and the mass density (348.22 K) was 1053.82 ± 0.38 kg/m3. For the same compound, the surface tension liquid-gas (352.1 K, Ring tensiometer) was 29.02 ± 0.5 mN/m, the mass density (352.72 K) was 1050.55 ± 0.38 kg/m3 and the surface tension liquid-gas (353.08 K, Willhelmy plate method) was 29.07 ± 0.07 mN/m. The surface tension liquid-gas (357.88 K, Ring tensiometer) was 28.83 ± 0.5 mN/m, the mass density (357.94 K) was 1047.5 ± 0.38 kg/m3 and the surface tension liquid-gas (357.99 K, Willhelmy plate method) was 28.86 ± 0.07 mN/m. For the same compound, the mass density (363.54 K) was 1043.86 ± 0.38 kg/m3, the surface tension liquid-gas (363.56 K, Ring tensiometer) was 28.58 ± 0.49 mN/m and the surface tension liquid-gas (363.61 K, Willhelmy plate method) was 28.61 ± 0.07 mN/m.
CCCCCCCCCCCC[n+]1ccn(C)c1.F[B-](F)(F)F [1-dodecyl-3-methylimidazolium tetrafluoroborate] gave a surface tension liquid-gas (327.2 K, Ring tensiometer) of 25.89 ± 0.4 mN/m, a mass density (328.83 K) of 1027.93 ± 0.38 kg/m3 and a surface tension liquid-gas (333.17 K, Willhelmy plate method) of 25.79 ± 0.11 mN/m. It also gave a surface tension liquid-gas (333.2 K, Ring tensiometer) of 25.61 ± 0.4 mN/m, a mass density (333.45 K) of 1024.75 ± 0.38 kg/m3 and a mass density (337 K) of 1022.41 ± 0.38 kg/m3. The surface tension liquid-gas (338 K, Willhelmy plate method) was 25.54 ± 0.11 mN/m, the surface tension liquid-gas (338.06 K, Ring tensiometer) was 25.59 ± 0.4 mN/m and the surface tension liquid-gas (342.73 K, Willhelmy plate method) was 25.4 ± 0.11 mN/m. The surface tension liquid-gas (343.23 K, Ring tensiometer) was 25.4 ± 0.39 mN/m, the mass density (343.4 K) was 1018.2 ± 0.38 kg/m3 and the surface tension liquid-gas (347.11 K, Ring tensiometer) was 25.22 ± 0.39 mN/m. It also gave a surface tension liquid-gas (347.11 K, Willhelmy plate method) of 25.26 ± 0.11 mN/m, a mass density (347.32 K) of 1015.89 ± 0.38 kg/m3 and a mass density (352.58 K) of 1012.18 ± 0.38 kg/m3. For the same compound, the surface tension liquid-gas (353.61 K, Willhelmy plate method) was 25.03 ± 0.11 mN/m, the surface tension liquid-gas (353.66 K, Ring tensiometer) was 25.11 ± 0.39 mN/m and the mass density (357.71 K) was 1009 ± 0.38 kg/m3. It also gave a surface tension liquid-gas (359.02 K, Willhelmy plate method) of 24.82 ± 0.11 mN/m, a surface tension liquid-gas (359.84 K, Ring tensiometer) of 24.78 ± 0.39 mN/m and a mass density (362.85 K) of 1005.22 ± 0.38 kg/m3. The surface tension liquid-gas (363.47 K, Willhelmy plate method) was 24.64 ± 0.11 mN/m and the surface tension liquid-gas (363.69 K, Ring tensiometer) was 24.63 ± 0.39 mN/m.
